{"source": "paper PMC3793852", "about": "(Journal of medicinal chemistry, 2013)", "key": {"[1]": {"system": "L1210 (ATCC CCL-219) mouse lymphocytic leukemia cells", "assay": "Cell growth inhibition assay", "type": "cell-based", "details": "for fold less active than duocarmycin SA (loss in activity): L1210, relative to duocarmycin SA"}, "PAMPA assay": {"assay": "PAMPA assay", "type": "in vitro ADME", "details": "for Papp at 5 h, 1 μM: pH 7.4"}}}
{"compound": "COCCOc1cc2cc(C(=O)N3C[C@@H](CCl)c4c3cc(O)c3[nH]c(C(=O)OC)cc43)[nH]c2c(OCCOC)c1OCCOC", "note": "[10a]", "values": [{"measurement": "fold less active than duocarmycin SA (loss in activity)", "setting": "[1]", "value": "approximately 5 fold"}]}
{"compound": "COCCOCCOCCOCCOCCOc1cc2cc(C(=O)N3C[C@@H](CCl)c4c3cc(O)c3[nH]c(C(=O)OC)cc43)[nH]c2c(OCCOCCOCCOCCOCCOC)c1OCCOCCOCCOCCOCCOC", "note": "[10e]", "values": [{"measurement": "Papp at 5 h, 1 μM", "setting": "PAMPA assay", "value": 0.11, "unit": "×10⁻⁶ cm/s"}, {"measurement": "fold reduction in permeability relative to 2", "setting": "PAMPA assay; relative to 2", "value": 85, "unit": "fold"}, {"measurement": "IC50", "setting": "[1]; Mus musculus, L1210, read-out: –log IC50, cell growth inhibition (converted)", "value": 398, "unit": "nM"}]}
{"compound": "COCCOc1c(OC)cc2cc(C(=O)N3C[C@@H](CCl)c4c3cc(O)c3[nH]c(C(=O)OC)cc43)[nH]c2c1OC", "note": "[15a]", "values": [{"measurement": "Papp at 5 h, 1 μM", "setting": "PAMPA assay", "value": 4, "unit": "×10⁻⁶ cm/s"}, {"measurement": "fold less active than duocarmycin SA (loss in activity)", "setting": "[1]", "value": "approximately 2 fold"}]}
{"compound": "COCCOCCOCCOCCOCCOc1c(OC)cc2cc(C(=O)N3C[C@@H](CCl)c4c3cc(O)c3[nH]c(C(=O)OC)cc43)[nH]c2c1OC", "note": "[15e]", "values": [{"measurement": "Papp at 5 h, 1 μM", "setting": "PAMPA assay", "value": 2.1, "unit": "×10⁻⁶ cm/s"}, {"measurement": "fold less active than duocarmycin SA (loss in activity)", "setting": "[1]", "value": 30, "unit": "fold"}]}
{"compound": "COC(=O)c1cc2c([nH]1)C(=O)C=C1N(C(=O)c3cc4cc(OC)c(OC)c(OC)c4[nH]3)CC3CC123", "note": "(stereo not drawn) [compound 2, duocarmycin SA, reference compound]", "values": [{"measurement": "Papp at 5 h, 1 μM", "setting": "PAMPA assay", "value": 9.5, "unit": "×10⁻⁶ cm/s"}]}
